Values of other authors in patent US12133849B2, “Method for treating cancer using a BCL-2 inhibitor in conjunction with an alpha- emitting radioimmunotherapeutic” (Actinium Pharmaceuticals, Inc., priority 2017, dated 2024).

patients experiencing grade 3 and/or 4 neutropenia: 40%
Compound: CC1(C)CCC(CN2CCN(c3ccc(C(=O)NS(=O)(=O)c4ccc(NCC5CCOCC5)c([N+](=O)[O-])c4)c(Oc4cnc5[nH]ccc5c4)c3)CC2)=C(c2ccc(Cl)cc2)C1 [venetoclax]
